Data set [1] deals with Alpha-2A adrenergic receptor (Homo sapiens) (UniProt P08913). Nature of the data set: Inhibition of adrenergic alpha-2A receptor (unknown origin) at 1 ug/mL relative to control.
Data set [2] has as its target Inhibitor of nuclear factor kappa-B kinase subunit beta (Homo sapiens, UniProt O14920). The data set is described as follows: Inhibition of human IKKB.
In data set [3] the target is Cannabinoid receptor 2 (Homo sapiens) (UniProt P34972). The data set is described as follows: Inhibition of CB2 receptor (unknown origin) at 20 ug/mL relative to control.
Cannabinoid receptor 2 (Homo sapiens), sequence (P34972 whole entry): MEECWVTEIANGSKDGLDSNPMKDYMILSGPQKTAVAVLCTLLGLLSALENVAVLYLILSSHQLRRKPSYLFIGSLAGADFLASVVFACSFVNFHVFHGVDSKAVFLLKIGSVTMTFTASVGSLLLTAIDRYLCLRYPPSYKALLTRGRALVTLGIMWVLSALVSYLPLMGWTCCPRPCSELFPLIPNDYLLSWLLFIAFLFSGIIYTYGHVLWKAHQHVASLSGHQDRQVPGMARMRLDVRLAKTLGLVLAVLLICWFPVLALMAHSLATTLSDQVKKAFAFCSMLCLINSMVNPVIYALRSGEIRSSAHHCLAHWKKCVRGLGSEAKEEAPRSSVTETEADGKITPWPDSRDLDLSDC
Data set [4] deals with Muscarinic acetylcholine receptor M4 (Homo sapiens) (UniProt P08173). Nature of the data set: Inhibition of muscarinic M4 receptor (unknown origin) at 2 ug/mL relative to control.
Muscarinic acetylcholine receptor M4 (Homo sapiens), sequence (P08173 whole entry): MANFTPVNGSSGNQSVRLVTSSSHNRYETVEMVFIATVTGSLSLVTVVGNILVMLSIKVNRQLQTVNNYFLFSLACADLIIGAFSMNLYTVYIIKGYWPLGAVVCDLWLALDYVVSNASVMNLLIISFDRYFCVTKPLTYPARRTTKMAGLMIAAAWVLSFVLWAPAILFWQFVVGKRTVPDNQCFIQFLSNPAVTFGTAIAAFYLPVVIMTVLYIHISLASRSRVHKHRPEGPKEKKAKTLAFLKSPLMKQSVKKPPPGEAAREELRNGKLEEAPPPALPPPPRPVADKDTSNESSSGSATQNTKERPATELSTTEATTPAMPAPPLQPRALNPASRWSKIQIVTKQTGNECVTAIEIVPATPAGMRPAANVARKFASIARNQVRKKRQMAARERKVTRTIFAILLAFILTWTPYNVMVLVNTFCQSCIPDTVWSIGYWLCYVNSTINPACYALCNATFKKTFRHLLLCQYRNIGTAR
Data set [5] deals with Cytochrome P450 2D6 (Homo sapiens, UniProt P10635). The data set is described as follows: Time-dependent inhibition of CYP2D6 in human liver microsomes using dextromethorphan as substrate incubated for 30 mins prior to substrate addition measured after 30 mins by LC-MS/MS analysis. It counts as ADME, Microsome. A general note: Liver microsomes are a subcellular fraction often used to study metabolism.
Cytochrome P450 2D6, sequence (P10635 whole entry): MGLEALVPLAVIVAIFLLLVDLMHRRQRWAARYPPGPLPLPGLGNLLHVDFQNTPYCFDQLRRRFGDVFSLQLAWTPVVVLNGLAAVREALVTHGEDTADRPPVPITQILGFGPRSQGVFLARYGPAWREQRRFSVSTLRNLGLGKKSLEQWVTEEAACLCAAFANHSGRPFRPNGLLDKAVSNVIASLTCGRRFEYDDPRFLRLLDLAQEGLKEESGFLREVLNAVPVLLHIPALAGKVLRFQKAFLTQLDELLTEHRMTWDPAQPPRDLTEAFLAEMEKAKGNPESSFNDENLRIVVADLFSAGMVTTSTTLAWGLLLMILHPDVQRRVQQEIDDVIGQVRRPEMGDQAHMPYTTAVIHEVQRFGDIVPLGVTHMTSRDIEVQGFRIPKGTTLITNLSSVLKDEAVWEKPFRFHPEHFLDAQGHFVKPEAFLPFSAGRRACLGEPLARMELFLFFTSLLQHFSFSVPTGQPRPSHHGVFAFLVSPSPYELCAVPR

Data set [6] has as its target Histamine H1 receptor (Homo sapiens) (UniProt P35367). The data set is described as follows: Inhibition of histamine H1 receptor (unknown origin) at 1 ug/mL relative to control.
Data set [7] has as its target D(1A) dopamine receptor (Homo sapiens) (UniProt P21728). Nature of the data set: Inhibition of dopamine D1 receptor (unknown origin) at 2 ug/mL relative to control.
For data set [8], the target named is Tyrosine-protein kinase JAK2 (Homo sapiens, UniProt O60674). The data set is described as follows: Inhibition of human JAK2.
The target in data set [9] is Muscarinic acetylcholine receptor M1 (Homo sapiens) (UniProt P11229). The data set is described as follows: Inhibition of muscarinic M1 receptor (unknown origin) at 2 ug/mL relative to control.
Muscarinic acetylcholine receptor M1 (Homo sapiens), sequence (P11229 whole entry): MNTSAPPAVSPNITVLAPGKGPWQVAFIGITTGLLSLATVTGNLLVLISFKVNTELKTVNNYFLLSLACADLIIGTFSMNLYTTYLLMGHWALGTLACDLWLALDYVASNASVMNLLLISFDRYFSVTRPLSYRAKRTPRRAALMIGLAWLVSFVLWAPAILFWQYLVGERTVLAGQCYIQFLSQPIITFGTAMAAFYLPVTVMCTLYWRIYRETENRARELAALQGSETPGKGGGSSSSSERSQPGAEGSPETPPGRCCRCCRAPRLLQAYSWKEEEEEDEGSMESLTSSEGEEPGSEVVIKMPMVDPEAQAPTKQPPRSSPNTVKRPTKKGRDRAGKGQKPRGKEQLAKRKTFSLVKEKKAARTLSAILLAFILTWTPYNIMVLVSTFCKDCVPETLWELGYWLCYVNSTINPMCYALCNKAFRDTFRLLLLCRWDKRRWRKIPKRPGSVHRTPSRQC
For data set [10], the target named is hERG (KCNH2) (Homo sapiens, UniProt Q12809). Nature of the data set: Inhibition of human ERG expressed in mouse L929 cells at 1 uM by IonWorks assay relative to control. It counts as cell-based. As to conditions: mouse L929 cells expressing human ERG.
Data set [11] deals with Tyrosine-protein kinase Lck (Homo sapiens, UniProt P06239). Nature of the data set: Inhibition of human LCK.
Tyrosine-protein kinase Lck, sequence (P06239 whole entry): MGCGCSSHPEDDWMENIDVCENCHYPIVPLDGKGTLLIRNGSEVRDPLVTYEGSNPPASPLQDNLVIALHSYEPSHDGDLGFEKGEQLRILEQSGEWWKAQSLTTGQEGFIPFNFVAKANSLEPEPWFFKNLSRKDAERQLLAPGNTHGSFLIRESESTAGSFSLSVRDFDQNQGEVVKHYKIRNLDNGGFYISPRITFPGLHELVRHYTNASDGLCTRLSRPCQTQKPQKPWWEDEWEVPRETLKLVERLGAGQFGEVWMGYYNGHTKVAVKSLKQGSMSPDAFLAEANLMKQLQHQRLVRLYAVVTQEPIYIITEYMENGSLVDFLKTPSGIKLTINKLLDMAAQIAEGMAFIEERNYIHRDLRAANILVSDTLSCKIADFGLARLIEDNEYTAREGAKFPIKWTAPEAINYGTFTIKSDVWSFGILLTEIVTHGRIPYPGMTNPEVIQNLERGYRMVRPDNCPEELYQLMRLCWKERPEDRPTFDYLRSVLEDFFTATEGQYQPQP
The target in data set [12] is Adenosine receptor A2a (Homo sapiens) (UniProt P29274). Nature of the data set: Inhibition of adenosine A2A receptor (unknown origin) at 2 ug/mL relative to control.
Adenosine receptor A2a (Homo sapiens), sequence (P29274 whole entry): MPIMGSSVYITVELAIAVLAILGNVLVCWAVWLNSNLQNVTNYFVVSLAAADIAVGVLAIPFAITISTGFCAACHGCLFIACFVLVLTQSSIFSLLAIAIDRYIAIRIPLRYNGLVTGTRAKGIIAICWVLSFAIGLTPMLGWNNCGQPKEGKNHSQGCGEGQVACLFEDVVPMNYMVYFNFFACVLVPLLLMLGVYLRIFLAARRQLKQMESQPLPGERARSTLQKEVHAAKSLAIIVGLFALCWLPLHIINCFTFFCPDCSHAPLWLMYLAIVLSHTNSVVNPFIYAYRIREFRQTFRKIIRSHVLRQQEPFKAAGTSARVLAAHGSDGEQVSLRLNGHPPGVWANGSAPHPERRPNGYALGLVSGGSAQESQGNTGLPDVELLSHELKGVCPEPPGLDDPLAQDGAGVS
In data set [13] the target is D(2) dopamine receptor (Homo sapiens) (UniProt P14416). The data set is described as follows: Inhibition of dopamine D2 receptor (unknown origin) at 2 ug/mL relative to control.
D(2) dopamine receptor (Homo sapiens), sequence (P14416 whole entry): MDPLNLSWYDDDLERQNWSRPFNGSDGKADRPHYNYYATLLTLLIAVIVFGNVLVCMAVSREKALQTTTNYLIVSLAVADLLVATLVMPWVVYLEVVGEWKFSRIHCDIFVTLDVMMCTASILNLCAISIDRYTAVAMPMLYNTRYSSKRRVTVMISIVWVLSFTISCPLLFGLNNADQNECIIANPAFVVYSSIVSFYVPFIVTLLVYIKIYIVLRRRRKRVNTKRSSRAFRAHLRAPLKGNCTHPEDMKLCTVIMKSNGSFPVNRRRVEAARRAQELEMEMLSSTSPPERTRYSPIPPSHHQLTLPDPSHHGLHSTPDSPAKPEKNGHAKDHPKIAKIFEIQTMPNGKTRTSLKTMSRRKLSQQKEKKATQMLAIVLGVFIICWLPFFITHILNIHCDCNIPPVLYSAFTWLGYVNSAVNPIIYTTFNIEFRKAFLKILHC
A short description of data set [14]: Plasma concentration in rat at 10 mg/kg, po measured at 24 hrs. It counts as ADME, organism-based. Set-up: dose 10 mg/kg, route oral.
For data set [15], the target named is Alpha-1A adrenergic receptor (Homo sapiens) (UniProt P35348). Nature of the data set: Inhibition of adrenergic alpha-1A receptor (unknown origin) at 1 ug/mL relative to control.
Data set [16] in a line: Plasma concentration in rat at 10 mg/kg, po measured at 4 hrs. It counts as ADME, organism-based. Also noted: dose 10 mg/kg, route oral.

Each structure is given as a SMILES string.

The inhibition is the change of the read-out against control, counted positive when it falls. Broadly, the IC50 is the concentration at which inhibition is half-maximal.

D(1A) dopamine receptor (Homo sapiens), sequence (P21728 whole entry): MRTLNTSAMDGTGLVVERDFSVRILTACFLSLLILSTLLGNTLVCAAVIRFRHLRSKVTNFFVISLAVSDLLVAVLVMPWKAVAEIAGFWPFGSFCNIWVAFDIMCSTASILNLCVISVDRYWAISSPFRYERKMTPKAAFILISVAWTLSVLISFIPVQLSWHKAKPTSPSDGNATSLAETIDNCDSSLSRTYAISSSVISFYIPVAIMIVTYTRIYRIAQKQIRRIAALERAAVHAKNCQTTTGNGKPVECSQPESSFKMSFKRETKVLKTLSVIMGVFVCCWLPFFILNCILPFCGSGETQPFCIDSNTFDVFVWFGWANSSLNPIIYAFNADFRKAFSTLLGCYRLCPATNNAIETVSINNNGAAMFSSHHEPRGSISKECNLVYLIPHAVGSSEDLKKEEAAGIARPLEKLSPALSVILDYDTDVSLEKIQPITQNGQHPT
Alpha-2A adrenergic receptor (Homo sapiens), sequence (P08913 whole entry): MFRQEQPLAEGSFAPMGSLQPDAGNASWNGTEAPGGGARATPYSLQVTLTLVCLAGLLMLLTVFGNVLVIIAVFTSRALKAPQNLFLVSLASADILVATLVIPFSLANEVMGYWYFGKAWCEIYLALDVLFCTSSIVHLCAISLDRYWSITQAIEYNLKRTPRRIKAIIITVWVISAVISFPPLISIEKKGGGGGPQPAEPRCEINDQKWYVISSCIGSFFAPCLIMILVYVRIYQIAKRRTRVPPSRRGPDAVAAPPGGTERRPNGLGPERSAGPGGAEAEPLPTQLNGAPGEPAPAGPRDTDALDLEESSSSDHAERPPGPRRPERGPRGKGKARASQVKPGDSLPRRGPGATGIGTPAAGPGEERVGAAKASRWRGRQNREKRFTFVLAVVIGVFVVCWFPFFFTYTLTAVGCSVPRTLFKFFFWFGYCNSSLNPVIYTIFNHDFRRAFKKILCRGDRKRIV
Inhibitor of nuclear factor kappa-B kinase subunit beta, sequence (O14920 whole entry): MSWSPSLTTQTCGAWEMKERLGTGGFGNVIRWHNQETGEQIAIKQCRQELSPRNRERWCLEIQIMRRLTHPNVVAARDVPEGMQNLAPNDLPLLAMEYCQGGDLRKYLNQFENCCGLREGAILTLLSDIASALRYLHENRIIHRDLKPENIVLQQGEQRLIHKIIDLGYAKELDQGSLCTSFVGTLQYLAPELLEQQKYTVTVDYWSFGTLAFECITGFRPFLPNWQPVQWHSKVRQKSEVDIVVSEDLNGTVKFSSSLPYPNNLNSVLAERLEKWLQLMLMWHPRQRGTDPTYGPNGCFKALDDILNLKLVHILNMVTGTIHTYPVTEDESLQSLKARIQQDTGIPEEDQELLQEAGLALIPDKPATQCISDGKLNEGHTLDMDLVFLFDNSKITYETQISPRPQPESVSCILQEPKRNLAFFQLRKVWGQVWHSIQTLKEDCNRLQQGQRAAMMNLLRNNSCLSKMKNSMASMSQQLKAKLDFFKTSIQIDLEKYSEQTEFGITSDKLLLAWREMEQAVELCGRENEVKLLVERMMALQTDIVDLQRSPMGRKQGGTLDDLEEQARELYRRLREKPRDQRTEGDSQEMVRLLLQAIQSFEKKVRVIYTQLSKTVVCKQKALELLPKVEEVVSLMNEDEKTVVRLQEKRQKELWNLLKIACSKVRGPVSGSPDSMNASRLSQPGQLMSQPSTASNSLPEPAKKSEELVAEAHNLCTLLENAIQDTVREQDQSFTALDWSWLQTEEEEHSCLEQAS

`COc1ccc2c(c1)C(=O)N(c1nc(C(=O)Nc3cnccc3N3CCNCC3)cs1)C2`: the inhibition in data set [1] amounted to 16.1%; in data set [3], 25.1%; in [4], 14.1%; in [6], 21%; in data set [7], 2.8%; in data set [9] it was 43.8%. For the same compound, the figures for the inhibition in data set [12], in data set [13] and in data set [15] were -5.8%, 16.9% and 23.7%, respectively. In addition, the IC50 in data set [2] is more than 30 µM; in data set [5] it was more than 30 µM; in data set [8], 21 µM; in data set [11], more than 30 µM. For the same compound, the inhibition at 1 µM in data set [10] was 4%. Further, the concentration at 24 h in [14] was 6.29 ng/mL. In data set [16], this compound registered a concentration at 4 h of 183 ng/mL.

The values above are taken from ChEMBL document CHEMBL2380296, “Structure-based design and optimization of 2-aminothiazole-4-carboxamide as a new class of CHK1 inhibitors” (Bioorg Med Chem Lett, 2013).
